The data set is described as follows: Saturated solubility testing in butanone and ethanol. Type of data set: physicochemical. As to conditions: for Solubility (w/w) in butanone: solvent butanone; for Solubility (w/w) in ethanol: solvent ethanol.

Regarding `O=[N+]([O-])c1ccc2c(c1)[O][Fe]1([O]c3cc([N+](=O)[O-])ccc3/N=N/c3c(ccc4ccccc34)[O]1)[O]c1ccc3ccccc3c1/N=N/2` [Example 29], the “Solubility (w/w) in butanone” value is recorded as 50% (w/w) and the “Solubility (w/w) in ethanol” value is on record as <1% (w/w).

Turning to `O=[N+]([O-])c1ccc2c(c1)/N=N/c1c(ccc3ccccc13)[O][Fe]1([O]2)[O]c2ccc([N+](=O)[O-])cc2/N=N/c2c(ccc3ccccc23)[O]1` [Example 59], the “Solubility (w/w) in butanone” value is given as 6% (w/w) and the “Solubility (w/w) in ethanol” value is on record as <1% (w/w).

On to `CCC(C)(C)c1cc2c(c([N+](=O)[O-])c1)[O][Fe]1([O]c3ccc4ccccc4c3/N=N/2)[O]c2ccc3ccccc3c2/N=N/c2cc(C(C)(C)CC)cc([N+](=O)[O-])c2[O]1` [Example 60], for which the “Solubility (w/w) in butanone” value is on record as ≥20% (w/w) and the “Solubility (w/w) in ethanol” value is <2% (w/w).

(Values after patent US20240199881A1, “METAL COMPLEX DYES FOR INKJET PRINTING” (Videojet Technologies Inc., priority 2021, published 2024).)
